A word on the pEC50: it is the EC50 on a negative log10 scale, so that one unit is a factor of ten.

Data on 65 compounds can be found in patent US9809602B2, “Compounds for treating viral infections” (INSTITUT PASTEUR KOREA, priority 2014, dated 2017).

pEC50: −log10 of the molar value.

The subject of the first test is genotype 1/2 chimeric cell culture derived HCV (HCVcc). Nature of the test: Genotype 1/2 chimeric HCVcc assay (nano-luciferase, HCV replication). It is filed as cell-based. The following applies: Hepatitis C virus. The procedure:
Naïve Huh-7.5 target cells were plated at 2400 cells/well in 25 μL of culture media in 384-well plates (Greiner bio-one, μ clear black). After overnight incubation, compounds serially diluted in 10 μL of cell culture media were added. After 2 h compound treatment, cells were inoculated with 40 μL of genotype 1/2 chimeric cell culture derived HCV (HCVcc) which express structural proteins of an HCV genotype 1a isolate (TN accession number EF621489) and non-structural proteins of HCV genotype 2a (JFH-1) with nano-luciferase reporter. At 72 h post infection, nano-luciferase activity (Nano-Glo™, Promega) and cellular ATP (Cell titer-Glo™, Promega) were measured as a marker for HCV replication and cytotoxicity, respectively. EC50 and CC50 were calculated by non-linear regression analyzing using GraphPad Prism (GraphPad Software).
Turning to `O=C(NCCCN1CCC(N2CCCCC2)CC1)c1ccc2c(c1)NC(=O)c1ccccc1S2` [Compound 1066], the pEC50 was 5.00 to 6.00.
The same measure, in the same setting: to `CN(C)c1ccc(-c2ccc(C(=O)NCCCN3CCC(N4CCCCC4)CC3)cc2)cc1` [Compound 1125] belongs 6.00 to 7.00; to `O=C(NC/C=C/CN1CCC(N2CCCCC2)CC1)c1ccc(Oc2ccccc2)cc1` [Compound 1076], 6.00 to 7.00; to `Cc1ccc(-c2ccc(S(=O)(=O)NCCCN3CCC(N4CCCCC4)CC3)cc2)cc1` [Compound 1098], 6.00 to 7.00.
On the same count and under the same terms, the figure for `O=C(NCCCN1CCC(N2CCCCC2)CC1)c1ccc(-c2ccc(C(F)(F)F)nc2)cc1` [Compound 1101] is 6.00 to 7.00; for `CN1CCC(C2CCN(CCCNC(=O)c3ccc(Oc4ccccc4)cc3)CC2)CC1` [Compound 1065] it is 6.00 to 7.00; for `COc1ccccc1Oc1ccc(C(=O)NCCCN2CCC(N3CCCCC3)CC2)cc1` [Compound 1063] it is under 5.00.
On the same count and under the same terms, the figure for `O=C(NCCCN1CCC(N2CCCCC2)CC1)c1ccc(-c2ccc(C(F)(F)F)cc2)cc1Cl` [Compound 1112] is 6.00 to 7.00.
In the case of `O=C(NCCCN1CCC(N2CCCCC2)CC1)c1ccc(-c2ccc(C(F)(F)F)s2)cc1` [Compound 1137], the pEC50 was 6.00 to 7.00.
On the same count and under the same terms, to `O=C(NCCCCCN1CCC(N2CCCCC2)CC1)c1ccc(Oc2ccccc2)cc1` [Compound 1087] belongs 6.00 to 7.00; to `Cc1cc(NC(=O)CCCN2CCC(N3CCCCC3)CC2)ccc1-c1ccc(C(F)(F)F)cc1` [Compound 1152], over 7.00; to `O=C(NCCCN1CCC(N2CCCCC2)CC1)Nc1ccc(-c2ccc(C(F)(F)F)cc2)cc1` [Compound 1118], 6.00 to 7.00.
On the same count and under the same terms, to `O=C(NCCCN1CCN(c2ccccc2)CC1)c1ccc(Oc2ccccc2)cc1` [Compound 1040] belongs 5.00 to 6.00; to `Cc1cc(-c2ccc(C(F)(F)F)cc2)ccc1C(=O)NCCCN1CCC(N2CCCCC2)CC1` [Compound 1156], 6.00 to 7.00.
`O=C(NCCCN1CCC(N2CCCCC2)CC1)c1cccc(-c2ccccc2)c1` [Compound 1025] showed a pEC50 of 5.00 to 6.00.

The same test, now with this note: Hepatitis C virus, Huh7.5, 72 h.
The compound `CCOC(=O)c1c(NC(=O)NCc2c(-n3cccc3)sc3c2CCN(CC)C3)sc2c1CCN(C(C)=O)C2` [Compound 47] had a pEC50 of over 7.00.
Same read-out and setting: to `CN1CCc2c(sc(Br)c2CNC(=O)Nc2sc3c(c2C(=O)OC(C)(C)C)CCCCC3)C1` [Compound 279] belongs over 7.00.
For the compound `CC(C)(C)OC(=O)c1c(NC(=O)NCc2c(-n3cccc3)sc3c2CCN(C(C)(C)C)C3)sc2c1CCCC2` [Compound 99], the negative-log EC50 (pEC50) was over 7.00.
The same measure, in the same setting: the figure for `CC(C)(C)OC(=O)c1c(NC(=O)NCc2c(-c3ccccc3F)sc3c2CCNC3)sc2c1CCCC2` [Compound 227] is 6.00 to 7.00; for `CCOC(=O)c1c(NC(=O)NCc2c(C(F)(F)F)sc3c2CCN(C(=O)[C@H](C)N)C3)sc2c1CCCC2` [Compound 327] it is over 7.00.
The same measure, in the same setting: to `CN1CCc2c(sc(-n3cccc3)c2CNC(=O)Nc2sc3c(c2C(=O)OC(C)(C)C)CCOC3)C1` [Compound 236] belongs over 7.00; to `CC1CCc2c(sc(NC(=O)NCc3c(Br)sc4c3CCNC4)c2C(=O)OC(C)(C)C)C1` (centres unmarked) [Compound 213], over 7.00; to `CCOC(=O)c1c(NC(=O)NCc2c(-n3cccc3)sc3c2CCN(C)C3)sc2c1CC(C)CC2` (centres unmarked) [Compound 191], over 7.00.
`Cc1sc(NC(=O)NCc2c(-n3c(C)ccc3C)sc3c2CCNC3)c(C(=O)OC(C)(C)C)c1C` [Compound 352] had a pEC50 of 5.00 to 6.00.
With `CCN1CCc2c(sc(-n3cccc3)c2CNC(=O)Nc2sc3c(c2C(=O)NNC(C)C)CCCC3)C1` [Compound 209], the pEC50 is over 7.00.
The same measure, in the same setting: to `CCN1CCc2c(sc(C(F)(F)F)c2CNC(=O)Nc2sc3c(c2C(=O)OC)CCCC3)C1` [Compound 178] belongs over 7.00.
Still for that read-out and setting: the figure for `CCOC(=O)c1c(NC(=O)NCc2c(-n3cccc3)sc3c2CCN(CC)C3)sc2c1CC(C)CC2` (centres unmarked) [Compound 192] is over 7.00; for `CCOC(=O)c1c(NC(=O)NCc2c(-n3cccc3)sc3c2CCCNC3)sc2c1CCCC2` [Compound 243] it is over 7.00.
The same measure, in the same setting: the figure for `CC(C)(C)OC(=O)c1c(NC(=O)NCc2c(-c3ccoc3)sc3c2CCNC3)sc2c1CCOC2` [Compound 331] is over 7.00; for `CN1CCc2c(sc(-n3cccc3)c2CNC(=O)Nc2sc3c(c2C(=O)OC(C)(C)C)CCCC3)C1` [Compound 68] it is over 7.00.
On to `CCOC(=O)c1cc2ccccc2cc1NC(=O)NCc1c(-n2cccc2)sc2c1CCN(CC)C2` [Compound 45], for which the pEC50 is 5.00 to 6.00.
Same read-out and setting: to `CC(C)(C)OC(=O)c1c(NC(=O)NCc2c(C(F)(F)F)sc3c2CCNC3)sc2c1CCC2` [Compound 244] belongs over 7.00; to `CCOC(=O)c1c(NC(=O)NCc2csc3c2CCNC3)sc2c1CCCC2` [Compound 38], over 7.00; to `CC1Cc2c(sc(NC(=O)NCc3c(Br)sc4c3CCNC4)c2C(=O)OC(C)(C)C)C(C)C1` (centres unmarked) [Compound 267], over 7.00.
The compound `CC(C)(C)OC(=O)c1c(NC(=O)NCc2c(C(F)(F)F)sc3c2CCNC3)sc2c1CCOC2` [Compound 238] gave a pEC50 of over 7.00.
Still for that read-out and setting: the figure for `CC(C)(C)OC(=O)c1c(NC(=O)NCc2c(-n3cccc3)sc3c2CCNC3)sc2c1CCC2` [Compound 277] is over 7.00.
Same read-out and setting: the figure for `CCOC(=O)c1c(NC(=O)NCc2c(-n3cccc3)sc3c2CCN(CC)C3)sc(C(=O)N(C)C)c1C` [Compound 58] is 5.00 to 6.00.
`CC(C)(C)OC(=O)c1c(NC(=O)NCc2c(-c3ccc(F)nc3)sc3c2CCNC3)sc2c1CCCC2` [Compound 309] had a pEC50 of over 7.00.
On the same count and under the same terms, the figure for `CCOC(=O)c1c(NC(=O)NCc2c(-n3cccc3)sc3c2CCNC3)sc2ccccc12` [Compound 63] is 6.00 to 7.00.
Turning to `CCOC(=O)c1c(NC(=O)NCc2c(-n3cccc3)sc(C(=O)OC(C)(C)C)c2C)sc2c1CCCC2` [Compound 50], the pEC50 is 5.00 to 6.00.
Same read-out and setting: the figure for `CCOC(=O)c1c(NC(=O)NCc2c(-n3cccc3)sc3c2CCN(C)C3)sc2c1CC(C)CC2C` (centres unmarked) [Compound 206] is over 7.00.
As for `CCOC(=O)c1c(NC(=O)NCc2c(-n3cccc3)sc3c2CCNC3)sc2c1CCC2` [Compound 112], the pEC50 was over 7.00.
On the same count and under the same terms, the figure for `CCOC(=O)c1c(NC(=O)NCc2c(-n3cnc(C)n3)sc3c2CCNC3)sc2c1CCCC2` [Compound 87] is 6.00 to 7.00; for `Cc1sc(NC(=O)NCc2c(-c3cccc(F)c3)sc3c2CCNC3)c(C(=O)OC(C)C)c1C` [Compound 251] it is over 7.00.
On the same count and under the same terms, the figure for `CCOC(=O)c1c(NC(=O)NCc2c(-n3cccc3)sc3c2CCN(CC)C3)sc2c1CCC(C)C2` (centres unmarked) [Compound 153] is over 7.00; for `CNCc1sc(-n2cccc2)c(CNC(=O)Nc2sc3c(c2C(=O)OC(C)(C)C)CCCC3)c1C` [Compound 158] it is 6.00 to 7.00.
Same read-out and setting: the figure for `CC(C)(C)OC(=O)c1c(NC(=O)NCc2c(-c3ccc(Cl)cc3)sc3c2CCNC3)sc2c1CCCC2` [Compound 179] is over 7.00; for `CCN1CCc2c(sc(Br)c2CNC(=O)Nc2sc3c(c2C(=O)OC)CCCC3)C1` [Compound 177] it is over 7.00.
`CCOC(=O)c1c(NC(=O)NCc2c(C(F)(F)F)sc3c2CCN(CCN(C)C)C3)sc2c1CCCC2` [Compound 316] showed a pEC50 of over 7.00.
The same measure, in the same setting: to `CCN1CCc2c(sc(Br)c2CNC(=O)Nc2sc3c(c2C(=O)OC2CCCC2)CCCC3)C1` [Compound 263] belongs over 7.00; to `CCc1sc2c(c1CNC(=O)Nc1sc3c(c1C(=O)OC(C)(C)C)CCC(C)C3)CCNC2` (centres unmarked) [Compound 289], over 7.00; to `CCOC(=O)c1c(NC(=O)NCc2c(-n3cccc3)sc3c2CCN(CC)C3)sc(OC)c1C` [Compound 32], 6.00 to 7.00.
Turning to `CC(C)OC(=O)c1c(NC(=O)NCc2c(-n3cccc3)sc3c2CCN(C)C3)sc2c1CCCC2` [Compound 156], the pEC50 is over 7.00.
In the case of `Cc1sc(NC(=O)NCc2c(C(F)(F)F)sc3c2CCNC3)c(C(=O)OC(C)C)c1C` [Compound 217], the pEC50 was over 7.00.
Same read-out and setting: the figure for `O=C(NCc1c(Br)sc2c1CCNC2)Nc1sc2c(c1C(=O)OC1CCCCC1)CCCC2` [Compound 271] is over 7.00.
On the same count and under the same terms, the figure for `CCc1sc2c(c1CNC(=O)Nc1sc3c(c1C(=O)OC(C)(C)C)CCC3)CCNC2` [Compound 314] is over 7.00; for `CCOC(=O)c1c(NC(=O)NCc2c(-n3cccc3)sc3c2CCN(C)C3)sc2ccccc12` [Compound 66] it is over 7.00.
On the same count and under the same terms, the figure for `CCOC(=O)c1c(NC(=O)NCc2c(C(F)(F)F)sc3c2CCN(C)C3)sc2c1CCCC2` [Compound 197] is over 7.00.
In the case of `CC(C)OC(=O)c1c(NC(=O)NCc2c(C(F)(F)F)sc3c2CCNC3)sc2c1CCCC2` [Compound 167], the pEC50 is over 7.00.
Same read-out and setting: to `CC(C)OC(=O)c1c(NC(=O)NCc2c(Br)sc3c2CCNC3)sc2c1CCCC2` [Compound 140] belongs over 7.00.
The same measure, in the same setting: the figure for `CC(C)N1CCc2c(sc(-n3cccc3)c2CNC(=O)Nc2sc3c(c2C(=O)OC(C)(C)C)CCCC3)C1` [Compound 98] is over 7.00.
Same read-out and setting: the figure for `CCN1CCc2c(sc(Br)c2CNC(=O)Nc2sc3c(c2C(=O)OC(C)(C)C)CCCCC3)C1` [Compound 280] is over 7.00; for `Cc1sc(NC(=O)NCc2c(-n3cccc3)sc3c2CCN(C)C3)c(C(=O)OC(C)C)c1C` [Compound 196] it is over 7.00.
For the compound `CCN1CCc2c(sc(-n3cccc3)c2CNC(=O)Nc2sc3c(c2C(=O)NCCCCN)CCCC3)C1` [Compound 91], the pEC50 was 6.00 to 7.00.
`CC(C)(C)OC(=O)c1c(NC(=O)NCc2c(-c3ccccc3)sc3c2CCNC3)sc2c1CCCC2` [Compound 130] gave a negative-log EC50 (pEC50) of over 7.00.
